From patent US20250120905A1, “THERAPEUTIC AGENTS TARGETING THE LYMPHATIC SYSTEM” (VIVASOR, INC, priority 2021, published 2025)

Tests used:
[1] = system: patients with moderately to severely active Rheumatoid Arthritis (RA); experiment: Phase 1b study of Enbrel administered by SOFUSA: DAS28 (ESR/CRP) disease activity scores; assay type: in vivo, human; conditions: Patient ID 01-002
Description: (§1) An exemplary Sofusa Lymphatic Delivery System (SOFUSA) was designed to access the lymphatic system directly through the skin at the epidermal/dermal boundary (See FIG. 1) such that the infusion accessed afferent lymphatic capillaries when employed as described in Examples 2 and 3, below. The exemplary SOFUSA system was comprised of a microneedle device (see, e.g., FIG. 3A) and a syringe pump configured to administer anti-arthritic therapeutic agent, such as Enbrel, into the lymphatic circulation through the skin. This configuration was optimized to provide flow rates and pharmacokinetics using lymphatic anti-arthritic drug delivery in early phase clinical trials. The exemplary SOFUSA device was attached to the body of subjects via an attachment system that domed the skin upwards for consistent microneedle penetration, and a nylon strap with Velcro® that comfortably held the device down on the skin, keeping the microneedles in position until the dosing was complete (See, e.g., FIG. 2). Dose volume and infusion rate were set with an infusion pump (See, e.g., FIG. 2).
(§2) SOFUSA microneedles were arranged into an array and placed on the skin using a mechanical impact applicator. A solution comprising Enbrel at a concentration of approximately 50 milligrams per milliliter (50 mg/mL) was then administered at a controlled infusion rate into the device, through the microneedles and into the skin using an external syringe pump. The solution comprising Enbrel was delivered into the body at an infusion rate of 0.5 milliliters per hour (mL/hr), which corresponded to an infusion period of one hour to deliver a 25 mg dose and 2 hours to deliver a 50 mg dose.
(§3) In this ongoing Phase 1b study, 25 mg of Enbrel (50% of the non-SOFUSA delivered subcutaneous dose) was administered lymphatically once weekly via SOFUSA to patients for 12 weeks. The study design calls for an increase in the SOFUSA-administered Enbrel dose to 50 mg during the dose escalation phase of the study (weeks 4-8) provided that dose escalation criteria are met. Patients remain on either the 25 mg or 50 mg dose for the final maintenance phase of the study. The dose escalation criteria for the Enbrel dose to be increased from 25 mg to 50 mg are: a DAS28 (ESR)≥3.2 and an increase in DAS28 (ESR)>0.6 compared to baseline.
(§4) Patients entered in the study had been treated with subcutaneous Enbrel with or without continuation of MTX, and have had either a primary (lack of sufficient efficacy with initial treatment) or secondary (initial efficacy but became inefficacious over time) inadequate response with the maximum approved dose of Enbrel. […] To the extent that inadequate response to Enbrel in some patients may be due to insufficient Enbrel levels in target lymphoid tissues or an inadequate immunologic response, Enbrel administered into the lymphatic system via SOFUSA was therefore theorized to provide a favorable clinical response despite an inadequate response to subcutaneous Enbrel administration.
(§5) This patient received SOFUSA-administered Enbrel at a 25 mg dosage once weekly for 12 weeks. Each week, SOFUSA was applied to the dorsal forearm with alternating left and right arm locations and the SOFUSA-administered Enbrel solution was infused through the skin into the lymphatic circulation for one hour.
Disease Activity Scores (DAS) 28 (DAS28) DAS28) were calculated based on 28 tender and swollen joints, Patient Global Assessment of Disease Activity, and C-Reactive Protein (CRP) or Erythrocyte Sedimentation Rate (ESR). DAS28 (ESR) and DAS28 (CRP) scores for Patient ID 01-002 are shown in FIG. 4A and FIG. 4B, respectively.

patients with RA = conditions: cited from earlier work
[2] = system: patients with moderately to severely active Rheumatoid Arthritis (RA); experiment: Phase 1b study of Enbrel administered by SOFUSA: DAS28 (ESR/CRP) disease activity scores; assay type: in vivo, human; conditions: Patient 01-004; SOFUSA Enbrel 25 mg once weekly; indicative of remission
[3] = system: patients with moderately to severely active Rheumatoid Arthritis (RA); experiment: Phase 1b study of Enbrel administered by SOFUSA: tender and swollen joint counts; assay type: in vivo, human
Description: as §1, §2, §3, §4, §5
Joint counts were performed every 2 weeks. There was observed a consistent decrease in the number of tender and swollen joints using both 66/68 and 28 joint count criteria for the entire 12-week dosing period (See FIG. 5A and FIG. 5B, respectively).

[4] = Etanercept lymph node concentrations after IV, SC, ID or lymphatic (Sofusa) delivery; assay type: in vivo; conditions: for etanercept concentration in lymph nodes, lymphatic (Sofusa) vs IV administration: percentage initial dose per gram of lymph tissue
Experimental: Etanercept was administered to subjects either via intravenous (IV), subcutaneous (SC), Intradermal (ID), or lymphatic (Sofusa) delivery. Average etanercept concentrations (expressed as percentage initial dose per gram of lymph tissue) in lymph node tissue was then determined at twelve and 36 hours post-administration. […] In particular, etanercept concentrations at 12 hours post lymphatic (Sofusa) administration were approximately 40-fold greater, and approximately 9-fold greater at 36 hours, than etanercept concentrations administered via IV.
Methods and procedures for some of these experiments have been adapted from Aldrich, et al., Arthritis Res. Ther., (2017), 19:116 (DOI 10.1186/s13075-017-1323-z; Open Access) which is incorporated by reference herein in its entirety for all purposes.

[5] = system: patients with moderately to severely active Rheumatoid Arthritis (RA); experiment: Phase 1b study of Enbrel administered by SOFUSA: ACR response; assay type: in vivo, human; conditions: week 10 vs baseline (week 0); Patient 01-002 and Patient 01-004; SOFUSA Enbrel 25 mg once weekly
Description: as §1
SOFUSA microneedles were arranged into an array and placed on the skin using a mechanical impact applicator. […]

[6] = system: patients with moderately to severely active Rheumatoid Arthritis (RA); experiment: Phase 1b study of Enbrel administered by SOFUSA: patient/physician disease activity and pain Visual Analog Scale; assay type: in vivo, human; conditions: for Patient Assessment of Pain (VAS) decrease / Patient Global Assessment of Disease Activity (VAS) decrease / Physician Global Assessment of Disease Activity (VAS) decrease: SOFUSA Enbrel 25 mg once weekly for 12 weeks
Description: as §1, §2, §3, §4, §5
Ratings were performed by each patient and physician on a Visual Analog Scale (VAS) every 2 weeks for disease activity (patient and physician) and disease-related pain (patient). […] In addition, the Patient Assessment of Pain for Patient ID 01-002 decreased from 46 mm at week 0 to 29 mm at week 12 (i.e., 37.0% decrease). The Physician Global Assessment of Disease Activity for Patient ID 01-002 decreased substantially from 50 mm at week 0 to 15 mm at week 12, corresponding to a 70.0% decrease in disease activity.

local lymphatic function = experiment: Near-Infrared Fluorescence (NIRF) lymphatic imaging with Indocyanine Green; assay type: in vivo, human
Experimental: The local lymphatic function was measured using Near-Infrared Fluorescence (NIRF) imaging techniques with Indocyanine Green (ICG) at the beginning, at 6 weeks, and at the end of the study. […] The ICG was delivered at the opposite arm location as the Enbrel dosing.
In this regard, it has been speculated that lymphatic dysfunction may encourage the development of rheumatic autoimmune diseases such as scleroderma, lupus, and rheumatoid arthritis (see, e.g., Aletaha, D., et al., Ann. Rheum. Dis., 75, 1479-1485 (2016)). […] NIRF imaging of the lymphatics after infusion of a solution of ICG at the beginning, middle and end of the study. NIRF imaging was used to assess lymphatic pumping in RA patients before and after treatment with SOFUSA with Enbrel. Additionally, the imaging provided a visualization of the lymphatic vessels and was intended to confirm that SOFUSA delivers ICG solution directly into the lymphatics.

[7] = before SOFUSA dosing, inadequate response to weekly 50 mg Enbrel subcutaneous
[8] = Patient 01-002, by week 12 of the study
[9] = Patient ID 01-002 (FIG. 5), week 0 to week 12, SOFUSA Enbrel 25 mg once weekly
[10] = Patient ID 01-004, SOFUSA Enbrel 25 mg once weekly for 12 weeks
[11] = Patient ID 01-006, SOFUSA Enbrel 25 mg once weekly for 12 weeks
[12] = Patient ID 01-002, SOFUSA Enbrel 25 mg once weekly
[13] = Patient ID 01-002, before SOFUSA dosing
[14] = Patient ID 01-002, week 0 to week 12, SOFUSA Enbrel 25 mg once weekly

etanercept [Enbrel]
DAS28 (ESR) at week 12 ([1]; SOFUSA Enbrel 25 mg once weekly, baseline 4.58): 3.02
DAS28 (CRP) at Week 12 ([1]; SOFUSA Enbrel 25 mg once weekly, baseline 4.99): 3.12
DAS28 (ESR) decrease from baseline ([1]; SOFUSA Enbrel 25 mg once weekly, week 12 vs baseline 4.58): 34.1%
DAS28 (CRP) decrease from baseline ([1]; SOFUSA Enbrel 25 mg once weekly, week 12 vs baseline 4.99): 37.5%
DAS28 (ESR) at Week 10 (lowest achieved) ([1]; after 10 weekly 25 mg SOFUSA Enbrel doses, level of remission): 2.10
DAS28 (CRP) at baseline [1, 7]: 4.99
DAS28 (CRP) at screening [1, 7]: 4.94
DAS28 (ESR) at baseline [1, 7]: 4.58
DAS28 (ESR) at screening [1, 7]: 4.62
efficacy response rate, ACR70 (patients with RA; Enbrel in combination with MTX, delivered systemically): < 50%
patients achieving ACR70 (patients with RA; Enbrel plus MTX, at 3 and 6 months, Enbrel prescribing information): 15%
DAS28 (ESR) at week 10 [2]: 2.10
SJC66 decrease (ACR response section) [3, 8]: 55.6%
TJC68 decrease (ACR response section) [3, 8]: 58.8%
decrease in number of swollen joints, 28-Joint Count [3, 9]: 28.6%
decrease in number of swollen joints, full 66-Joint Count [3, 9]: 44.4%
decrease in number of tender joints, 28 Joint Count [3, 9]: 90.9%
decrease in number of tender joints, full 68-Joint Count [3, 9]: 70.6%
SJC66 decrease [3, 10]: 66.7%
TJC68 decrease [3, 10]: 60.0%
SJC66 change [3, 11]: unchanged
TJC68 decrease [3, 11]: 70.6%
etanercept concentration in lymph nodes, lymphatic delivery compared to all other tested delivery routes (IV, SC, ID) ([4]; 12 and 36 hours post-administration, FIG. 12): far greater
etanercept concentration in lymph nodes, lymphatic (Sofusa) vs IV administration ([4]; 12 hours post administration): approximately 40 fold
etanercept concentration in lymph nodes, lymphatic (Sofusa) vs IV administration ([4]; 36 hours post administration): approximately 9 fold
ACR 50% response [5]: achieved
Patient Assessment of Pain (VAS) decrease (ACR response section) [6, 8]: 69.6%
Patient Global Assessment of Disease Activity (VAS) decrease (ACR response section) [6, 8]: 63.5%
Physician Global Assessment of Disease Activity (VAS) decrease (ACR response section) [6, 8]: 50.0%
Patient Assessment of Pain (VAS) at week 12 [6, 12]: 29 mm
Patient Global Assessment of Disease Activity (VAS, 100 mm) at week 12 [6, 12]: 21 mm
Physician Global Assessment of Disease Activity (VAS) at week 12 [6, 12]: 15 mm
Patient Assessment of Pain (VAS) at week 0 [6, 13]: 46 mm
Patient Global Assessment of Disease Activity (VAS, 100 mm) at week 0 [6, 13]: 52 mm
Physician Global Assessment of Disease Activity (VAS) at week 0 [6, 13]: 50 mm
Patient Assessment of Pain, decrease [6, 14]: 37.0%
Patient Global Assessment of Disease Activity, overall reduction [6, 14]: 59.6%
Physician Global Assessment of Disease Activity, decrease [6, 14]: 70.0%
Patient Assessment of Pain (VAS) decrease ([6]; Patient ID 01-004): 100.0%
Patient Global Assessment of Disease Activity (VAS) decrease ([6]; Patient ID 01-004): 46.7%
Physician Global Assessment of Disease Activity (VAS) decrease ([6]; Patient ID 01-004): 85.4%
Patient Global Assessment of Disease Activity (VAS) decrease at week 10 ([6]; Patient ID 01-004, week 10 of the study): 73.3%
Patient Assessment of Pain (VAS) decrease ([6]; Patient ID 01-006): 98.9%
Patient Global Assessment of Disease Activity (VAS) decrease ([6]; Patient ID 01-006): 97.1%
Physician Global Assessment of Disease Activity (VAS) decrease ([6]; Patient ID 01-006): 75.4%
lymphatic pump rate at week 0 (local lymphatic function; week 0, before SOFUSA treatment, ICG at opposite arm): less than 0.5 pumps per minute
lymphatic vessels visible by NIRF imaging at week 6 (local lymphatic function; week 6, after 6 SOFUSA Enbrel doses, vs week 0 (very few vessels visible)): significantly more lymphatic vessels could be imaged
lymphatic pump rate at week 6 (local lymphatic function; week 6, after 6 SOFUSA Enbrel doses, ICG at opposite arm): greater than 2 pumps per minute
